According to patent publication US8895585B2, “Nicotinamide derivative or salt thereof” (FUJIFILM Corporation, priority 2010, dated 2014):

Experiments:
[1] = system: THP-1 cells; assay: TNFα generation assay; type: cell-based, human; conditions: Homo sapiens, THP-1, THP-1 cells; Table 22; read-out: IC50 in TNFα generation assay
Procedure, shortened: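 THP-1 cells differentiated to macrophage-like cells with 10 ng/ml IFN-γ for 2 days, preincubated with compound 30 min at room temperature, then cultured 7 h on plates coated with human IgG (10 μg/ml). Secreted TNFα measured by ELISA or AlphaLISA.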

[2] = biological target: T1, glutathione S-transferase (GST)-fused full-length human Syk protein (Homo sapiens, UniProt P43405); assay: Syk enzyme assay; type: biochemical; conditions: Syk enzyme assay, Test Example 1; read-out: IC50 of Syk-inhibitory activity
T1 construct: (GST)-fused full-length human Syk protein; GST (glutathione S-transferase); purchased Carna Biosciences
Procedure, shortened: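 IC50 values come from a time-resolved FRET readout (615 and 665 nm) of substrate phosphorylation, measured after an EDTA stop and 1 h antibody binding. The kinase reaction ran 40 min at room temperature with 27 μM ATP and 0.4 μM biotin-peptide, following a 15 min compound preincubation with baculovirus-made GST-full-length human Syk.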

SMILES | IC50 [1] [nM] | IC50 [2] [nM]
CCn1nc(F)c2cc(Nc3nc(N[C@H](CC(C)C)[C@H](C)N)c(F)cc3C(N)=O)ccc21 [Example 006-512, 6-(((2S,3R)-2-amino-5-methylhexan-3-yl)amino)-2-((1-ethyl-3-fluoro-1H-indazol-5-yl)amino)-5-fluoronicotinamide] | 65 to 130 | < 10
CC(C)C[C@@H](Nc1nc(Nc2ccc3c(c2)c(F)nn3CC(F)F)c(C(N)=O)cc1F)[C@H](C)N [Example 006-513, 6-(((2S,3R)-2-amino-5-methylhexan-3-yl)amino)-2-((1-(2,2-difluoroethyl)-3-fluoro-1H-indazol-5-yl)amino)-5-fluoronicotinamide] | 65 to 130 | < 10
C[C@H](N)[C@H](Nc1nc(Nc2ccc(N3CCOCC3)nc2)c(C(N)=O)cc1F)C1CC1 [Example 006-515, 6-(((1R,2S)-2-amino-1-cyclopropylpropyl)amino)-5-fluoro-2-((6-morpholinopyridin-3-yl)amino)nicotinamide] | 130 to 200 | < 10
CCn1ncc2cc(Nc3nc(N[C@H](c4ccccc4)[C@H](C)N)c(F)cc3C(N)=O)ccc21 [Example 006-516, 6-(((1R,2S)-2-amino-1-phenylpropyl)amino)-2-((1-ethyl-1H-indazol-5-yl)amino)-5-fluoronicotinamide] | < 65 | < 10
COCCOc1ncc(Nc2nc(N[C@@H]3CCCC[C@@H]3N)c(F)cc2C(N)=O)cc1-n1nccn1 [Example 006-517, 6-(((1R,2S)-2-aminocyclohexyl)amino)-5-fluoro-2-((6-(2-methoxyethoxy)-5-(2H-1,2,3-triazol-2-yl)pyridin-3-yl)amino)nicotinamide] | 65 to 130 | < 10
CCn1ncc2c(Nc3nc(N[C@H](CC(C)C)[C@H](C)N)c(F)cc3C(N)=O)cccc21 [Example 006-519, 6-(((2S,3R)-2-amino-5-methylhexan-3-yl)amino)-2-((1-ethyl-1H-indazol-4-yl)amino)-5-fluoronicotinamide] | 65 to 130 | < 10
Cc1nn(C)c2ccc(Nc3nc(N[C@H](CC(C)C)[C@H](C)N)c(F)cc3C(N)=O)cc12 [Example 006-520, 6-(((2S,3R)-2-amino-5-methylhexan-3-yl)amino)-2-((1,3-dimethyl-1H-indazol-5-yl)amino)-5-fluoronicotinamide] | < 65 | < 10
CCn1nc(C)c2cc(Nc3nc(N[C@H](CC(C)C)[C@H](C)N)c(F)cc3C(N)=O)ccc21 [Example 006-521, 6-(((2S,3R)-2-amino-5-methylhexan-3-yl)amino)-2-((1-ethyl-3-methyl-1H-indazol-5-yl)amino)-5-fluoronicotinamide] | 65 to 130 | < 10
Cc1nn(CC(F)F)c2ccc(Nc3nc(N[C@H](CC(C)C)[C@H](C)N)c(F)cc3C(N)=O)cc12 [Example 006-522, 6-(((2S,3R)-2-amino-5-methylhexan-3-yl)amino)-2-((1-(2,2-difluoroethyl)-3-methyl-1H-indazol-5-yl)amino)-5-fluoronicotinamide] | < 65 | < 10
CC[C@@H](Nc1nc(Nc2cccc3c2cnn3CC)c(C(N)=O)cc1F)[C@H](C)N [Example 006-523, 6-(((2S,3R)-2-aminopentan-3-yl)amino)-2-((1-ethyl-1H-indazol-4-yl)amino)-5-fluoronicotinamide] | < 65 | < 10
CC[C@@H](Nc1nc(Nc2ccc3c(c2)c(C)nn3C)c(C(N)=O)cc1F)[C@H](C)N [Example 006-524, 6-(((2S,3R)-2-aminopentan-3-yl)amino)-2-((1,3-dimethyl-1H-indazol-5-yl)amino)-5-fluoronicotinamide] | < 65 | < 10
CC[C@@H](Nc1nc(Nc2ccc3c(c2)c(C)nn3CC)c(C(N)=O)cc1F)[C@H](C)N [Example 006-525, 6-(((2S,3R)-2-aminopentan-3-yl)amino)-2-((1-ethyl-3-methyl-1H-indazol-5-yl)amino)-5-fluoronicotinamide] | 65 to 130 | < 10
CC[C@@H](Nc1nc(Nc2ccc3c(c2)c(C)nn3CC(F)F)c(C(N)=O)cc1F)[C@H](C)N [Example 006-526, 6-(((2S,3R)-2-aminopentan-3-yl)amino)-2-((1-(2,2-difluoroethyl)-3-methyl-1H-indazol-5-yl)amino)-5-fluoronicotinamide] | < 65 | < 10
COc1cc(Nc2nc(N[C@@H]3CCOC[C@@H]3N)c(F)cc2C(N)=O)ccn1 [Example 006-531, 6-(((3R,4R)-3-aminotrahydro-2H-pyran-4-yl)amino)-5-fluoro-2-((2-methoxypyridin-4-yl)amino)nicotinamide] | 65 to 130 | < 10
NC(=O)c1cc(F)c(N[C@@H]2CCCC[C@@H]2N)nc1Nc1ccc(N2CCOC2=O)nc1 [Example 006-537, 6-(((1R,2S)-2-aminocyclohexyl)amino)-5-fluoro-2-((6-(2-oxooxazolidin-3-yl)pyridin-3-yl)amino)nicotinamide] | 65 to 130 | 10 to 50
CCc1nn(C)c2ccc(Nc3nc(N[C@H](CC)[C@H](C)N)c(F)cc3C(N)=O)cc12 [Example 006-539, 6-(((2S,3R)-2-aminopentan-3-yl)amino)-2-((3-ethyl-1-methyl-1H-indazol-5-yl)amino)-5-fluoronicotinamide] | 130 to 200 | < 10
CCc1nn(CC)c2ccc(Nc3nc(N[C@H](CC)[C@H](C)N)c(F)cc3C(N)=O)cc12 [Example 006-541, 6-(((2S,3R)-2-aminopentan-3-yl)amino)-2-((1,3-diethyl-1H-indazol-5-yl)amino)-5-fluoronicotinamide] | 130 to 200 | < 10
CC[C@@H](Nc1nc(Nc2ccc3c(c2)c(C(C)C)nn3C)c(C(N)=O)cc1F)[C@H](C)N [Example 006-543, 6-(((2S,3R)-2-aminopentan-3-yl)amino)-5-fluoro-2-((3-isopropyl-1-methyl-1H-indazol-5-yl)amino)nicotinamide] | 65 to 130 | < 10
Cn1nc(C2CC2)c2cc(Nc3nc(N[C@@H]4CCCC[C@@H]4N)c(F)cc3C(N)=O)ccc21 [Example 006-544, 6-(((1R,2S)-2-aminocyclohexyl)amino)-2-((3-cyclopropyl-1-methyl-1H-indazol-5-yl)amino)-5-fluoronicotinamide] | 65 to 130 | < 10
C[C@H](N)[C@@H](CC1CC1)Nc1nc(Nc2ccc3c(c2)c(C2CC2)nn3C)c(C(N)=O)cc1F [Example 006-545, 6-(((2R,3S)-3-amino-1-cyclopropylbutan-2-yl)amino)-2-((3-cyclopropyl-1-methyl-1H-indazol-5-yl)amino)-5-fluoronicotinamide] | 65 to 130 | < 10
CC(C)C[C@@H](Nc1nc(Nc2ccc3c(c2)c(C2CC2)nn3C)c(C(N)=O)cc1F)[C@H](C)N [Example 006-546, 6-(((2S,3R)-2-amino-5-methylhexan-3-yl)amino)-2-((3-cyclopropyl-1-methyl-1H-indazol-5-yl)amino)-5-fluoronicotinamide] | 130 to 200 | < 10
CC[C@@H](Nc1nc(Nc2ccc3c(c2)c(C2CC2)nn3C)c(C(N)=O)cc1F)[C@H](C)N [Example 006-547, 6-(((2S,3R)-2-aminopentan-3-yl)amino)-2-((3-cyclopropyl-1-methyl-1H-indazol-5-yl)amino)-5-fluoronicotinamide] | 65 to 130 | < 10
CCn1nc(C2CC2)c2cc(Nc3nc(N[C@@H]4CCCC[C@@H]4N)c(F)cc3C(N)=O)ccc21 [Example 006-548, 6-(((1R,2S)-2-aminocyclohexyl)amino)-2-((3-cyclopropyl-1-ethyl-1H-indazol-5-yl)amino)-5-fluoronicotinamide] | 65 to 130 | < 10
CCn1nc(C2CC2)c2cc(Nc3nc(N[C@H](CC(C)C)[C@H](C)N)c(F)cc3C(N)=O)ccc21 [Example 006-550, 6-(((2S,3R)-2-amino-5-methylhexan-3-yl)amino)-2-((3-cyclopropyl-1-ethyl-1H-indazol-5-yl)amino)-5-fluoronicotinamide] | 130 to 200 | < 10
CC[C@@H](Nc1nc(Nc2ccc3c(c2)c(C2CC2)nn3CC)c(C(N)=O)cc1F)[C@H](C)N [Example 006-551, 6-(((2S,3R)-2-aminopentan-3-yl)amino)-2-((3-cyclopropyl-1-ethyl-1H-indazol-5-yl)amino)-5-fluoronicotinamide] | 130 to 200 | < 10
COCCOc1ncc(Nc2nc(N[C@@H]3CCCC[C@@H]3N)c(F)cc2C(N)=O)cc1F [Example 006-552, 6-(((1R,2S)-2-aminocyclohexyl)amino)-5-fluoro-2-((5-fluoro-6-(2-methoxyethoxy)pyridin-3-yl)amino)nicotinamide] | 65 to 130 | 10 to 50
NC(=O)c1cc(F)c(N[C@@H]2CCCC[C@@H]2N)nc1Nc1cnc(C2CC2)c(F)c1 [Example 006-553, 6-(((1R,2S)-2-aminocyclohexyl)amino)-2-((6-cyclopropyl-5-fluoropyridin-3-yl)amino)-5-fluoronicotinamide] | 130 to 200 | < 10
CCc1ncc(Nc2nc(N[C@@H]3CCCC[C@@H]3N)c(F)cc2C(N)=O)cc1F [Example 006-554, 6-(((1R,2S)-2-aminocyclohexyl)amino)-2-((6-ethyl-5-fluoropyridin-3-yl)amino)-5-fluoronicotinamide] | 130 to 200 | 10 to 50
